# From US6479493B1, “Methods for treatment of type I diabetes” (Cell Pathways, Inc., priority 2001, dated 2002)
# Structures can show the parent of a compound that is named as a salt.
# How the values were obtained:
# [1] = target: T1, cGMP binding sites of the GST-cGB-PDE5 fusion protein (Homo sapiens, UniProt O76074); experiment: cGMP binding assay with GST-cGB-PDE5 fusion protein; details: 3H-cGMP 2 μM, 22° C., 1 hour
# T1 construct: made in house; host or cells: E. coli BL21 (DE3)
# Text: RT-PCR method is used to obtain the cGB domain of PDE5 with forward and reverse primers designed from bovine PDE5A cDNA sequence (McAllister-Lucas L. M. et al, J. Biol. Chem. 268, 22863-22873, 1993) and the selection among PDE 1-10 families. 5′-3′, Inc. kits for total RNA followed by oligo (dT) column purification of mRNA are used with HT-29 cells. […] It is then cloned into pGEX-5X-3 glutathione-S-ransferase (GST) fusion vector (Pharmacia Biotech )with tac promoter, and EcoRI and XhoI cut sites. The fusion vector is then transfected into E. Coli BL21 (DE3) bacteria (Invitrogen). The transfected BL21 bacteria is grown to log phase, and then IPTG is added as an inducer. The induction is carried at 20° C. for 24 hrs. The bacteria are harvested and lysed. The soluble cell lysate is incubated with GSH conjugated Sepharose 4B (GSH-Sepharose 4B). The GST-cGB-pDE5 fusion protein can bind to the GSH-Sepharose beads, and the other proteins are washed off from beads with excessive cold PBS.
# Then, the mixture is transferred to Brandel MB-24 cell harvester with GF/B as the filter membrane followed by 2 washes with 10 mL of cold 5 mM potassium buffer(pH 6.8). The membranes are then cut out and transferred to scintillation vials followed by the addition of 1 mL of H2O and 6 mL of Ready Safe™ liquid scintillation cocktail to each vial. The vials are counted on a Beckman LS 6500 scintillation counter.
# The quenching by filter membrane or other debris are also calibrated.
# [2] = target: PDE 5 (Homo sapiens, UniProt O76074); experiment: competitive binding (with cGMP) to PDE5
# [3] = test system: PDE1; experiment: PDE inhibition, similar protocols; format: biochemical
# [4] = test system: PDE4; experiment: PDE inhibition, similar protocols; format: biochemical
# [5] = test system: dogs; experiment: acute / seven-dose toxicity in dogs; details: dog, in vivo
# Protocol: Therefore, these dogs were subsequently administered seven consecutive doses of 1000 mg/kg/day.
# [6] = test system: rats; experiment: 91-day long-term safety assessment study in rats; format: in vivo, rat
# Text: These changes were not associated with any gross clinical abnormality.
# [7] = test system: dogs; experiment: 91-day oral study in dogs; format: in vivo, dog
# [8] = test system: human patients; experiment: single, escalating dose human clinical safety trial; format: in vivo; details: humans, oral, 50, 100, 200 and 400 mg BID
# Text: One skilled in the art should recognize that any of the side effects observed in these safety studies occurred at very high doses, in excess of recommended human doses and are extremely minimal compared to what one would expect at similar doses of other proposed therapies.
# [9] = test system: U937 cells; experiment: apoptosis induction of U937 cells, active caspase 3 indirect immunofluorescence; format: cell-based; details: 1 μM, 24 hours
# Protocol: U937 cells (from ATCC Rockville, Md.) were grown in RPMI media supplemented with 5% FCS, glutamine, antibiotic/antimycotic and sodium pyruvate. Total RNA was isolated from two U937 cultures, one treated with 5 nM TPA for 48 hours and one grown in normal media as listed above, using the Rouche High Pure RNA Isolation Kit (cat #1 828 665) as per manufacturers protocol. cDNA was then synthesized from the total RNA using GibcoBRL SuperscriptII (Cat #18064-022) reverse transcriptase as per manufacturers protocol. The resulting cDNA was used as a template for RT-PCR reactions using primer sets specific for PDE2 (forward: […], reverse: […]) or PDE5 (forward: […], reverse: […]). mRNA for PDE2 and 5 were both present in the untreated U937 cells. Upon treatment with TPA, the relative amounts of PDE2 mRNA increased 5 fold. Therefore, U937 cells treated with TPA and driven to differentiate into an activated macrophage like state have elevated levels of PDE2 mRNA (see FIG. 1).
# The presence of PDE2 and PDE5 protein within U937 cells was confirmed by indirect immunofluorescence (IIF). U937 cells were cultured as above. Two U937 cultures, one grown in the presence of 5 nM TPA for 48 hours and one grown in normal media were processed. All cultures were collected by centrifugation (Shandon Cytospin, 2 minutes @600 rpm) onto poly-L lysine-coated slides and immediately fixed in fresh 3% paraformaldehyde buffered in PBS for 10 minutes. Adherent cultures were grown on coverslips and fixed as above. Cells were permeablized in 0.2% Triton-100 for 2 minutes. Slides were blocked with blocking buffer (5% goat serum, 5% glycerol, 1% gelatin from cold water fish skin and 0.04% NaN3 in PBS) for 1 hour at room temperature.
# Slides were then incubated for 1 hour at 37° C. in a humid chamber with antibodies specific for PDE2 (generated in a sheep against the peptide […]) or PDE5 (generated in sheep against the peptide […]). […]
# The level of apoptosis in U937 cells was quantified by scoring 500 consecutive cells for the presence of active caspase 3. […]
# [10] = 91 days, highest dose group (300 mg/kg/day)
compound,measurement,setting,value
"CC1=C(CC(=O)NCc2ccccc2)c2cc(F)ccc2/C1=C\c1ccncc1 [Example 38, (Z)-5-Fluoro-2-methyl-(4-pyridylidene)-3-(N-benzyl)indenylacetamide Hydrochloride]",competition with cGMP in binding to the cGMP binding sites of GST-cGB-PDE5,[1],does not bind to the cGMP-binding site of PDE5
same,competitive (with cGMP) binding to PDE 5,[2],does competitively (with cGMP) bind to PDE 5
same,IC50,[3],3 µM
same,IC50,[4],6 µM
same,signs of toxicity,[5]; 1000 mg/kg,no signs of toxicity
same,signs of drug-related effects,[5]; 1000 mg/kg/day,At no time in either dosing phase were any obvious signs of drug-related effects observed
same,clinical biochemistry and hematology,[6]; 91 days,no changes in clinical biochemistry and hematology were evident
same,"microscopic finding, follicular cells","[6]; 91 days, 500 mg/kg/day",follicular cell hypertrophy
same,"microscopic finding, kidneys","[6]; 91 days, 200 and 500 mg/kg/day",increase in accumulation of hyalin droplets in the kidneys
same,"microscopic finding, liver","[6]; 91 days, 200 and 500 mg/kg/day",slight hepatocellular hypertrophy
same,liver and thyroid/parathyroid weights,"[6]; 91 days, males and females at 200 and 500 mg/kg/day",dose-related trend to increased liver and thyroid/parathyroid weights
same,toxicological effects overall,"[6]; oral, 91 days, 50, 200 and 500 mg/kg/day",did not produce any major toxicological effects
same,feces observation,"[7]; 91 days, 150 and 300 mg/kg/day",Orange discoloration of the feces
same,microscopic alterations (liver),"[7]; 91 days, highest dose group",no microscopic alterations
same,body weights,[7]; [10],Slightly lowered body weights
same,liver weights,[7]; [10],increased liver weights
same,route of elimination (suggested by feces colour),"[7]; oral, 91 days",most of Compound 38 was being eliminated via the feces
same,toxicological effects overall,"[7]; oral, 91 days, 50, 150 and 300 mg/kg/day",no toxicological effects
same,side effects,[8],no significant side effects at any dose
same,apoptosis by active caspase 3 image (FIG. 8),[9],undergoing apoptosis as reflected by the presence of active caspase 3
